# Assays:
# Experiment in all cases: Well diffusion agar method, inhibition zone
# Format in all cases: cell-based
# Proteus sp. = test system: Proteus sp.
# Excerpt: (§1) The ability to inhibit the growth of Gram-positive and Gram-negative bacteria, yeasts and filamentous fungi was observed using an overlay method (S. R. Connell, D. M. Tracz, K. H. Nierhaus, D. E. Taylor, Antimicrob. Agents Chemother. 47, 3675 (2003), incorporated herein by reference in its entirety).
# (§2) The common pathogenic and food spoilage microorganisms were selected for their relevance in bakery products and other food: the gram-positive bacteria: Bacillus subtilits NRRL-B-4219, Staphylococcus aureus ATCC 6538, Enterococcus faecalis ATCC 19433; the gram negative bacteria: Escherichia coli ATCC 25922, Pseudomonas aeruginosa ATCC 9027, Proteus sp.; yeasts, such as Candida albicans ATCC 10231; and fungi: Aspergillus niger NRRL 2766 (equivalent to ATCC 16888), and Aspergillus flavus ATCC 16883. The bacteria were slanted on nutrient agar (Merck, Darmstadt, Germany), yeast was slanted and mentioned on Sabaroud's agar medium (Lab M., Bury, Lancashire, UK) and the fungi was slanted and mentioned on the potato Dextrose Agar medium (Lab M Limited, Bury, Lancashire, UK). Mueller-Hinton agar (Lab M., Bury, Lancashire, UK) following the manufacturer's instructions was used for the assay.
# (§3) All compounds were dissolved in dimethyl sulfoxide (RFCL Limited, New Delhi, India) at 50 μg/mL concentration as shown in Table 4 in comparison with different standard antibiotics. Antibiotic discs of Streptomycin (S) (10 μg), Oxytetracycline (T) (30 μg), and Tetracyciline (TE) (30 μg) were used as positive controls for bacteria. Neomycin (N) (30 μg), was used for fungi.
# (§4) The antibacterial screening was performed with the well diffusion agar method (S. T. Williams, M. Goodfellow, E. M. H. Wellington, J. C. Vickers, G. Alderson, P. H. A. Sneath, S. M. J. Sackins, A. M. Mortimer, J. Gen. Microbiol. 129, 1815(1983); and B. Bonev, J. Hooper, J. Parisot, J. Antimicrob. Chemother., 61, 1295(2008), each incorporated herein by reference in their entirety). The organisms were streaked in radial patterns on the agar plates. Plates were incubated under aerobic conditions at 37° C. and 28° C. for 24 h and 48 h for bacteria and fungi, respectively. All prepared solutions were treated under the same conditions under the same incubated plates. All tests were performed in triplicate. Plates were examined for evidence of antimicrobial activities, represented by a zone of inhibition of the microorganism's growth around the holes, and diameters of clear zones were expressed in millimeters (R. Cruickshank, J. P. Duguid, B. P. Marmion, R. H. A. Swain, The practice of medicinal microbiology. In Medical Microbiology, 12th ed.; Churchill Livingstone: Edinburgh, UK, Volume 11, pp. 196-202 (1975), incorporated herein by reference in its entirety).
# [1] = test system: Enterococcus faecalis ATCC 19433
# Excerpt: as §1, §2, §3, §4
# [2] = test system: Aspergillus flavus ATCC 16883
# Excerpt: as §1, §2, §3, §4
# [3] = test system: Staphylococcus aureus ATCC 6538
# Excerpt: as §1, §2, §3, §4
# [4] = test system: Escherichia coli ATCC 25922
# Excerpt: as §1, §2, §3, §4
# [5] = test system: Pseudomonas aeruginosa ATCC 9027
# Excerpt: as §1, §2, §3, §4
# [6] = test system: Bacillus subtilits NRRL-B-4219
# Excerpt: as §1, §2, §3, §4
# [7] = test system: Aspergillus niger NRRL 2766
# Excerpt: as §1, §2, §3, §4
# [8] = test system: Candida albicans ATCC 10231
# Excerpt: as §1, §2, §3, §4
SMILES,"Inhibition zone, Proteus sp. (Proteus sp.; standard antibiotic disc 10 μg)","Inhibition zone, Ent. faecalis ([1]; standard antibiotic disc 10 μg)","Inhibition zone, A. flavus ([2]; standard antibiotic disc 10 μg)","Inhibition zone, S. aureus ([3]; standard antibiotic disc 10 μg)","Inhibition zone, E. coli ([4]; standard antibiotic disc 10 μg)","Inhibition zone, P. aeruginosa ([5]; standard antibiotic disc 10 μg)","Inhibition zone, B. subtilits ([6]; standard antibiotic disc 10 μg)","Inhibition zone, A. niger ([7]; standard antibiotic disc 10 μg)","Inhibition zone, C. albicans ([8]; standard antibiotic disc 10 μg)","Inhibition zone, Proteus sp. (Proteus sp.; standard antibiotic disc 30 μg)","Inhibition zone, Ent. faecalis ([1]; standard antibiotic disc 30 μg)","Inhibition zone, A. flavus ([2]; standard antibiotic disc 30 μg)","Inhibition zone, S. aureus ([3]; standard antibiotic disc 30 μg)","Inhibition zone, E. coli ([4]; standard antibiotic disc 30 μg)","Inhibition zone, P. aeruginosa ([5]; standard antibiotic disc 30 μg)","Inhibition zone, B. subtilits ([6]; standard antibiotic disc 30 μg)","Inhibition zone, A. niger ([7]; standard antibiotic disc 30 μg)","Inhibition zone, C. albicans ([8]; standard antibiotic disc 30 μg)"
"[H]/N=C(/N)N[C@H]1[C@H](O)[C@@H](O)[C@H](O[C@@H]2O[C@@H](C)[C@](O)(C=O)[C@H]2O[C@@H]2O[C@@H](CO)[C@H](O)[C@@H](O)[C@@H]2NC)[C@@H](N/C(N)=N\[H])[C@@H]1O (relative stereo) [S*, Streptomycin]",0 mm,0 mm,0 mm,0 mm,0 mm,0 mm,14 mm,0 mm,12 mm,,,,,,,,,
"NC[C@@H]1O[C@H](O[C@H]2[C@@H](O)[C@H](O[C@@H]3[C@@H](O)[C@H](N)C[C@H](N)[C@H]3O[C@H]3O[C@H](CN)[C@@H](O)[C@H](O)[C@H]3N)O[C@@H]2CO)[C@H](N)[C@@H](O)[C@@H]1O [N*, Neomycin]",,,,,,,,,,0 mm,0 mm,14 mm,0 mm,0 mm,0 mm,0 mm,16 mm,0 mm
"CN(C)[C@@H]1C(O)=C(C(N)=O)C(=O)[C@@]2(O)C(O)=C3C(=O)c4c(O)cccc4[C@@](C)(O)[C@H]3[C@H](O)[C@@H]12 [T*, Oxytetracycline]",,,,,,,,,,0 mm,0 mm,0 mm,0 mm,0 mm,0 mm,30 mm,0 mm,0 mm
"CN(C)[C@@H]1C(O)=C(C(N)=O)C(=O)[C@@]2(O)C(O)=C3C(=O)c4c(O)cccc4[C@@](C)(O)[C@H]3C[C@@H]12 [TE*, Tetracyciline]",,,,,,,,,,0 mm,0 mm,14 mm,0 mm,0 mm,0 mm,10 mm,16 mm,0 mm

# Reference: patent US10266510B2, “Antimicrobial and cytotoxic compounds and methods for treating cancer, a bacterial infection, and/or a fungal infection” (King Abdulaziz University, priority 2017, dated 2019)
